Values quoted from earlier work as cited in patent US20260015669A1, “COMPOSITIONS AND METHODS FOR DETECTING AND TREATING TUMORS AND/OR CANCERS ASSOCIATED WITH BRAF AND/OR MAP2K1 VARIANTS” (North Carolina State University, priority 2022, published 2026).

How the values were obtained:
ΔNVTAP mutants [1] = conditions: human cancer cell lines; RAF dimer inhibitors target the αC-in/DFG-out conformation
ΔNVTAP mutants [2] = target: ΔNVTAP mutants (Homo sapiens, UniProt P15056, DEL486-490); conditions: human cancer cell lines; in contrast to V600E mutants; inhibitors target the αC-out/DFG-in conformation
ΔNVTAP mutants (Homo sapiens, UniProt P15056, DEL486-490), sequence (P15056 with tags, fused parts or gaps DEL486-490): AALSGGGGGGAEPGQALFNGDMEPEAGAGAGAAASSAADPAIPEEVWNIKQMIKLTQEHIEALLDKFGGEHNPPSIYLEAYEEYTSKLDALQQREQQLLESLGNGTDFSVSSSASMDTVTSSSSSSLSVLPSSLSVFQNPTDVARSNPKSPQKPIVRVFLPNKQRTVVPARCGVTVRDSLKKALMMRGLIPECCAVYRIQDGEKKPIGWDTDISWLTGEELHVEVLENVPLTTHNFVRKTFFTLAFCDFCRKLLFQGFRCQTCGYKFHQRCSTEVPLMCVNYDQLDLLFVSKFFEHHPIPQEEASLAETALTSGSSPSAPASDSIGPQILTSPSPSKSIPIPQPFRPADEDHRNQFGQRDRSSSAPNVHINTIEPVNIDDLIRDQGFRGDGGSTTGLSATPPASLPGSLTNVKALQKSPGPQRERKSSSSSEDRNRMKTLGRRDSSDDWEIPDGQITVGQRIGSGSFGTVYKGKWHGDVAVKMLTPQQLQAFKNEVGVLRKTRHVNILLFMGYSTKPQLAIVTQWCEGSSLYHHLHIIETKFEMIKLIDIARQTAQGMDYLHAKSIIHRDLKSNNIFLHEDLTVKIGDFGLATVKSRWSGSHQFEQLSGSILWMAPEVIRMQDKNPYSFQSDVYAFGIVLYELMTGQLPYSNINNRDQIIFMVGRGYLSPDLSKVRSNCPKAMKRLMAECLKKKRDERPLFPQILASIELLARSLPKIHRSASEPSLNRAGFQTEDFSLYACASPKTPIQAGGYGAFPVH

response of ΔNVTAP mutants to BRAF monomer inhibitors (ΔNVTAP mutants [2])	SMILES	response of mutants with exon 12 in-frame deletions to pan-RAF dimer inhibitors and allosteric MEK inhibitors (ΔNVTAP mutants [1])
–	Cc1ccc(NC(=O)c2cccc(C(C)(C)C#N)c2)cc1Nc1ccc2ncn(C)c(=O)c2c1 [AZ628]	susceptible
–	CNc1ncc2cc(-c3cc(NC(=O)NCCC(C)(C)C)c(F)cc3C)c(C)nc2n1 [LY3009120]	susceptible
–	O=C(c1ccc(F)c(F)c1Nc1ccc(I)cc1F)N1CC(O)([C@@H]2CCCCN2)C1 [cobimetinib]	susceptible
resistant	CC(C)(C)c1nc(-c2cccc(NS(=O)(=O)c3c(F)cccc3F)c2F)c(-c2ccnc(N)n2)s1 [dabrafenib]	–
